According to PMC9502836, “Zika Virus Inhibitors Based on a 1,3-Disubstituted 1H-Pyrazolo[3,4-d]pyrimidine-amine Scaffold” (Molecules, 2022):

Legend:
luciferase reporter ZIKV = assay: luciferase-based ZIKV reporter assay in Huh7 cells; type: cell-based; details: Zika virus, Huh-7, 72 h, read-out: ZIKV Reporter Assay Inhibition (%) at 10 µM
Experimental: (§1) In the current study, we continued to use our previously reported luciferase-based ZIKV reporter assay as a primary antiviral screening, by which newly synthesized compounds were tested (at 10 µM) along with NITD008 (Figure 1, at 1 µM), a flavivirus RNA-dependent RNA polymerase (RdRp) inhibitor, and NSC 12155 (Figure 1, at 10 µM), a flavivirus NS5 methyltransferase (MTase) inhibitor, as reference compounds (Table 1). […] For active compounds (>60% titer-reduction), dose-response experiments were performed to determine EC50 (half maximal effective concentration, a concentration that is needed to cause half of the maximum possible pharmacological effect) and CC50 (half cytotoxic concentration, a concentration that is required to reduce cell viability by 50%) values. For selected compounds, EC50 values in the reporter assay were also measured.
The ZIKV reporter assay and titer-reduction assay were performed as previously reported. Briefly, Huh7 cells (1.5 × 10^4) were seeded in a 96-well plate and inoculated with a luciferase reporter ZIKV (MOI=0.2). After two hours, the cells were treated with medium containing the compound (10 µM). After 3 days post-infection, the cells were lysed, the Nanoluc signal was detected using the Nano-Glo® luciferase assay (Promega), then measured using a Neo 2 plate reader (BioTek, Winooski, VT, USA). For titer-reduction assays, 1.5 × 10^5 Huh7 cell were seeded in a 24-well plate. Next day, the cells were inoculated with ZIKV for two hours. The inoculum was replaced with compound-containing medium (8.5 µM) and incubated for 3 days. Supernatants were collected and viral titers were estimated by plaque assay.

[1] = Cell viability (CC50) assay, MTS-based; details: human; 10 µM compound, Huh7 cells, 3 days; read-out: ZIKV Reporter Assay Viability (%) at 10 µM
Experimental: as §1
The cell viability assay was performed in Huh7 cells as previously reported. Briefly, non-infected Huh7 cells were treated with the testing compounds for 3 days. Viability was measured by absorbance at […] using the MTS-based tetrazolium reduction CellTiter 96 Aqueous Non-Radioactive cell proliferation assay (Promega).

Structure (SMILES) | inhibition at 10 µM (luciferase reporter ZIKV) | viability at 3 days, 10 µM [1]
Nc1ncnc2c1c(CNc1ccccc1)cn2Cc1ccc([N+](=O)[O-])cc1 [Compound 4, 7-(4-Nitrobenzyl)-5-((phenylamino)methyl)-7H-pyrrolo[2,3-d]pyrimidin-4-amine] | 91% | 40%
Nc1ncnc2c1c(COc1ccccc1)nn2Cc1ccccc1 [Compound 7, 1-Benzyl-3-(phenoxymethyl)-1H-pyrazolo[3,4-d]pyrimidin-4-amine] | 0% | 99%
Nc1ncnc2c1c(COc1ccccc1)nn2Cc1ccccc1[N+](=O)[O-] [Compound 8, 1-(2-Nitrobenzyl)-3-(phenoxymethyl)-1H-pyrazolo[3,4-d]pyrimidin-4-amine] | 9% | 103%
Nc1ncnc2c1c(COc1ccccc1)nn2Cc1cccc([N+](=O)[O-])c1 [Compound 9, 1-(3-Nitrobenzyl)-3-(phenoxymethyl)-1H-pyrazolo[3,4-d]pyrimidin-4-amine] | 90% | 37%
Nc1ccccc1Cn1nc(COc2ccccc2)c2c(N)ncnc21 [Compound 10, 1-(2-Aminobenzyl)-3-(phenoxymethyl)-1H-pyrazolo[3,4-d]pyrimidin-4-amine] | 0% | 99%
Nc1cccc(Cn2nc(COc3ccccc3)c3c(N)ncnc32)c1 [Compound 11, 1-(3-Aminobenzyl)-3-(phenoxymethyl)-1H-pyrazolo[3,4-d]pyrimidin-4-amine] | 0% | 89%
Nc1ccc(Cn2nc(COc3ccccc3)c3c(N)ncnc32)cc1 [Compound 12, 1-(4-Aminobenzyl)-3-(phenoxymethyl)-1H-pyrazolo[3,4-d]pyrimidin-4-pmine] | 0% | 95%
N#Cc1ccc(Cn2nc(COc3ccccc3)c3c(N)ncnc32)cc1 [Compound 15, 4-((4-Amino-3-(phenoxymethyl)-1H-pyrazolo[3,4-d]pyrimidin-1-yl)methyl)benzonitrile] | 37% | 99%
COC(=O)c1ccccc1Cn1nc(COc2ccccc2)c2c(N)ncnc21 [Compound 16, Methyl 2-((4-Amino-3-(phenoxymethyl)-1H-pyrazolo[3,4-d]pyrimidin-1-yl)methyl)benzoate] | 0% | 95%
COC(=O)c1cccc(Cn2nc(COc3ccccc3)c3c(N)ncnc32)c1 [Compound 17, Methyl 3-((4-Amino-3-(phenoxymethyl)-1H-pyrazolo[3,4-d]pyrimidin-1-yl)methyl)benzoate] | 88% | 38%
COC(=O)c1ccc(Cn2nc(COc3ccccc3)c3c(N)ncnc32)cc1 [Compound 18, Methyl 4-((4-amino-3-(phenoxymethyl)-1H-pyrazolo[3,4-d]pyrimidin-1-yl)methyl)benzoate] | 6% | 95%
Nc1ncnc2c1c(COc1ccccc1)nn2Cc1ccnc(Cl)c1 [Compound 20, 1-((2-Chloropyridin-4-yl)methyl)-3-(phenoxymethyl)-1H-pyrazolo[3,4-d]pyrimidin-4-amine] | 88% | 39%
Nc1cc(Cn2nc(COc3ccccc3)c3c(N)ncnc32)ccn1 [Compound 22, 1-((2-Aminopyridin-4-yl)methyl)-3-(phenoxymethyl)-1H-pyrazolo[3,4-d]pyrimidin-4-amine] | 67% | 36%
CC(C)(C)OC(=O)Nc1cc(Cn2nc(COc3ccccc3)c3c(N)ncnc32)ccn1 [Compound 24, Tert-Butyl (4-((4-Amino-3-(phenoxymethyl)-1H-pyrazolo[3,4-d]pyrimidin-1-yl)methyl)pyridin-2-yl)carbamate] | 62% | 36%
